Like-named read-outs stand apart in the source and are kept apart here.
Key:
Assay type in all cases: cell-based
human TLR7 = target: T1, human TLR7 (Homo sapiens, UniProt Q9NYK1); assay: TLR7 inhibition reporter assay (HEK-Blue cells, secreted embryonic alkaline phosphatase reporter); details: HEK-Blue cells overexpressing human TLR7, stimulated with gardiquimod 7.5 μM; read-out: TLR 7 IC50
T1 construct: host or cells: HEK-Blue cells (HEK293-derived reporter line)
T1 sequence (Q9NYK1 27-1049): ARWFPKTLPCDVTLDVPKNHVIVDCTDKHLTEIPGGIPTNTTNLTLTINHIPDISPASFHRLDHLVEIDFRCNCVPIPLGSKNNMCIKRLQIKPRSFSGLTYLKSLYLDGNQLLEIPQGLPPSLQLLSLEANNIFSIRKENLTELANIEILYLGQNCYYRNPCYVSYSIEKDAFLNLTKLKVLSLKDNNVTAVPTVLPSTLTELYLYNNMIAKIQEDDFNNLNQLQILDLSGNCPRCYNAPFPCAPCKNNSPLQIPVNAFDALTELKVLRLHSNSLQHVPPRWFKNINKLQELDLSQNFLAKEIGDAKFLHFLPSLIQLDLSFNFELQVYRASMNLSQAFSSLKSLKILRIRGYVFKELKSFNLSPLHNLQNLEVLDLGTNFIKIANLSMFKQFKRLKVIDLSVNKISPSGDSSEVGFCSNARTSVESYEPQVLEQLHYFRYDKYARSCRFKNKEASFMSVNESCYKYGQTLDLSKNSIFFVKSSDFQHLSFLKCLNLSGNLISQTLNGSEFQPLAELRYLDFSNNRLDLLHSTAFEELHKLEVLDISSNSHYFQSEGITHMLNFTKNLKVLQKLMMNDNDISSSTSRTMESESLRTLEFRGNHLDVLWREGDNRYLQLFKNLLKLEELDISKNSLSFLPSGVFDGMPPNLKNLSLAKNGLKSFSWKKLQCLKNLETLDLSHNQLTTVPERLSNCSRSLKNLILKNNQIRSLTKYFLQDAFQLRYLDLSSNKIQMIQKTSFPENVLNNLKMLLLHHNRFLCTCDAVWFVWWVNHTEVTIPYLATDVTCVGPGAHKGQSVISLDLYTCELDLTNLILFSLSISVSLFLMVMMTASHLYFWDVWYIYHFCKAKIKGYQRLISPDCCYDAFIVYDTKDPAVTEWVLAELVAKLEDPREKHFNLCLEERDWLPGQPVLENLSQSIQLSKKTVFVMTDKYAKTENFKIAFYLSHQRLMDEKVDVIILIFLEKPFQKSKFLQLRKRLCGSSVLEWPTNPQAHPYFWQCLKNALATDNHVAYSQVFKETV
Method: (§1) TLR7/8/9 Inhibition Reporter Assays
(§2) HEK-Blue™-cells (Invivogen) overexpressing human TLR7, TLR8 or TLR9 receptors were used for screening inhibitors of these receptors using an inducible SLAP (secreted embryonic alkaline phosphatase) reporter gene under the control of the […] minimal promoter fused to five NF-κB and AP-1-binding sites. Briefly, cells are seeded into Greiner 384 well plates (15000 cells per well for TLR7, 20,000 for TLR8 and 25,000 for TLR9) and then treated with test compounds in DMSO to yield a final dose response concentration range of 0.05 nM-50 μM. After a 30 minute compound pre-treatment at room temperature, the cells are then stimulated with a TLR7 ligand (gardiquimod at a final concentration of 7.5 μM), TLR8 ligand (R848 at a final concentration of 15.9 μM) or TLR9 ligand (ODN2006 at a final concentration of 5 nM) to activate NF-κB and AP-1 which induce the production of SLAP. After a 22 hour incubation at 37° C., […], SLAP levels are determined with the addition of HEK-Blue™ Detection reagent (Invivogen), a cell culture medium that allows for detection of SLAP, according to manufacturer's specifications. The percent inhibition is determined as the […] in the HEK-Blue signal present in wells treated with agonist plus DMSO alone compared to wells treated with a known inhibitor.

human TLR8 = target: T2, human TLR8 (Homo sapiens, UniProt Q9NR97); assay: TLR8 inhibition reporter assay (HEK-Blue cells, secreted embryonic alkaline phosphatase reporter); details: HEK-Blue cells overexpressing human TLR8, stimulated with R848 15.9 μM; read-out: TLR 8 IC50
T2 construct: host or cells: HEK-Blue cells (HEK293-derived reporter line)
T2 sequence (Q9NR97 27-1041): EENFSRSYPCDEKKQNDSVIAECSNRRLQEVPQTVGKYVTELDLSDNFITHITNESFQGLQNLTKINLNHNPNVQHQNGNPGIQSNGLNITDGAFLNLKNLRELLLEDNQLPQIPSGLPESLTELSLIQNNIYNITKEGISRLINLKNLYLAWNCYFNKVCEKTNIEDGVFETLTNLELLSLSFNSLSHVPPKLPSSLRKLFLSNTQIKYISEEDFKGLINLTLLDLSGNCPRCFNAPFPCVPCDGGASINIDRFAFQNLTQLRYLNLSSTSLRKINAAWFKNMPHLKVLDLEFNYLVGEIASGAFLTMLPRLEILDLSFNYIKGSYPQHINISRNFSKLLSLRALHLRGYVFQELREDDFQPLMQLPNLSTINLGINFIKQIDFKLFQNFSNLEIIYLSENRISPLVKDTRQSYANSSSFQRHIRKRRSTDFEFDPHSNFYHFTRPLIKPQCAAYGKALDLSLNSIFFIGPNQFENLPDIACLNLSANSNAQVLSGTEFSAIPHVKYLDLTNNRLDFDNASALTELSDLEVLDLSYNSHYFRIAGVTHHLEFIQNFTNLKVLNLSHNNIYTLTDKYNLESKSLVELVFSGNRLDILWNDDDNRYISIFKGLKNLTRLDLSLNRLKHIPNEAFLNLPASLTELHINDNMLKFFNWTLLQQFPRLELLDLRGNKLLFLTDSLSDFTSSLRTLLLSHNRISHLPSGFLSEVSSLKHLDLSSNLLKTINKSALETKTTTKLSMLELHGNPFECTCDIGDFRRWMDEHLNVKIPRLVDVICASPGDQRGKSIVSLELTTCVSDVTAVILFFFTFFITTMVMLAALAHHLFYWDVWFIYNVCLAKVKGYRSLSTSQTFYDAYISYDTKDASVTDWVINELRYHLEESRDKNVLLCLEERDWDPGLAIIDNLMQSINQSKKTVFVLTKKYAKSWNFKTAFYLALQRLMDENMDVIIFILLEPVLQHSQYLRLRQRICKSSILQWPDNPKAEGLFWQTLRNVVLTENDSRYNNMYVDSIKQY
Method: as §1, §2

human TLR9 = target: T3, human TLR9 (Homo sapiens, UniProt Q9NR96); assay: TLR9 inhibition reporter assay (HEK-Blue cells, secreted embryonic alkaline phosphatase reporter)
T3 construct: host or cells: HEK-Blue cells (HEK293-derived reporter line)
T3 sequence (Q9NR96 26-1032): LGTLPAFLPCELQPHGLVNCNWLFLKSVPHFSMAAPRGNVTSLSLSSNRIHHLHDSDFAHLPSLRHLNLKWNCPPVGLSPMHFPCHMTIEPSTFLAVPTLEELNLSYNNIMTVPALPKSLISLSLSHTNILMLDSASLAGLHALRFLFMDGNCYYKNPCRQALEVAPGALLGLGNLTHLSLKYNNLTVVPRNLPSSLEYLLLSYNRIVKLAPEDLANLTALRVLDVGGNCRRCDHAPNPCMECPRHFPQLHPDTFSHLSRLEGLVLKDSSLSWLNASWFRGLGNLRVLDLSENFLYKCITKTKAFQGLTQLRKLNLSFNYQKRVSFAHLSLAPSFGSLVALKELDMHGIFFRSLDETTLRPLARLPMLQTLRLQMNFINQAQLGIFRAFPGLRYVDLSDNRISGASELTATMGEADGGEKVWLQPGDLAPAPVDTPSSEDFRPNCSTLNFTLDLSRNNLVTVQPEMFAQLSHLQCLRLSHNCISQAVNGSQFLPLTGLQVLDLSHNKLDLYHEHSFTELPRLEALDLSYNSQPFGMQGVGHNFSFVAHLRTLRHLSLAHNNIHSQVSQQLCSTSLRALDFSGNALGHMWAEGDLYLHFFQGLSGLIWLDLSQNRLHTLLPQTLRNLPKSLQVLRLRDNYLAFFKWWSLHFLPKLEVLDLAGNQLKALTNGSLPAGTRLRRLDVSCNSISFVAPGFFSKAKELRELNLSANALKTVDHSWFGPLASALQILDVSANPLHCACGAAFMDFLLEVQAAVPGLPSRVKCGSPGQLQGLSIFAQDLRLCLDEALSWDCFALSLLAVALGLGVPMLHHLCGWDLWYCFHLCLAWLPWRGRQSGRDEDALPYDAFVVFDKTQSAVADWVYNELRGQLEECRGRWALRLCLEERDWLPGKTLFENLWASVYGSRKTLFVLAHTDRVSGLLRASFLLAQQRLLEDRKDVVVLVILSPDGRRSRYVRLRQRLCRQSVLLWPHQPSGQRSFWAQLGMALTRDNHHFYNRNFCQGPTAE
Summary of the method: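 Agonist-driven SEAP output was measured in HEK-Blue reporter cells carrying human TLR7 (gardiquimod 7.5 μM), TLR8 (R848 15.9 μM) or TLR9 (ODN2006 5 nM). Compounds at 0.05 nM–50 μM final were added 30 min before stimulation at room temperature. After 22 h at 37 °C, percent inhibition was taken against agonist/DMSO wells and a reference inhibitor.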

[1] = HEK-Blue cells overexpressing human TLR9, stimulated with ODN2006 5 nM, 22 hour incubation, reporter readout
[2] = HEK-Blue cells overexpressing human TLR9, stimulated with ODN2006 5 nM, read-out: TLR 9 IC50

## COc1ccc(-c2nc3c(C)cc(C4C[C@H]5CC[C@@H](C4)N5C4CCN(C(C)C)CC4)cc3n2C)cc1OC (mixture of isomers) [Example 21, 2-(3,4-dimethoxyphenyl)-6-(8-(1-isopropylpiperidin-4-yl)-8-azabicyclo[3.2.1]octan-3-yl)-1,4-dimethyl-1H-benzo[d]imidazole]
Human TLR7
  IC50: 2.6 µM
Human TLR8
  IC50: > 50 µM
Human TLR9; [1]
  IC50: 0.024 µM

## CCn1c(-c2ccc(OC)c(OC)c2)nc2ccc(C3CCN(C4CCN(C(C)C)CC4)CC3)cc21 (single isomer, unassigned) [Example 8, 2-(3,4-dimethoxyphenyl)-1-ethyl-6-(1′-isopropyl-[1,4′-bipiperidin]-4-yl)-1H-benzo[d]imidazole]
Human TLR7
  IC50: 2.5 µM
Human TLR8
  IC50: > 50 µM
Human TLR9; [1]
  IC50: 0.21 µM

## CCn1c(-c2ccc(OC)c(OC)c2)nc2cc(C3CCN(C4CCN(C(C)C)CC4)CC3)ccc21 (single isomer, unassigned) [Example 9, 2-(3,4-dimethoxyphenyl)-1-ethyl-5-(1′-isopropyl-[1,4′-bipiperidin]-4-yl)-1H-benzo[d]imidazole]
Human TLR7
  IC50: 2.7 µM
Human TLR8
  IC50: 1.3 µM
Human TLR9; [1]
  IC50: 0.25 µM
Human TLR9; [2]
  IC50: 0.249 µM

## COc1ccc(-c2nc3c(C)cc(C4CCN(C5CC6CCC(C5)N6CC(C)C)CC4)cc3n2C)cc1OC (single isomer, unassigned) [Example 17, 2-(3,4-dimethoxyphenyl)-6-(1-(8-isobutyl-8-azabicyclo[3.2.1]octan-3-yl)piperidin-4-yl)-1,4-dimethyl-1H-benzo[d]imidazole]
Human TLR7
  IC50: 6.5 µM
Human TLR8
  IC50: > 50 µM
Human TLR9; [1]
  IC50: 0.025 µM

## COc1ccc(-c2nc3c(C)cc(C4CCN(C5CC6CCC(C5)N6CC(C)C)CC4)cc3n2C)cc1OC (single isomer, unassigned) [Example 18, 2-(3,4-dimethoxyphenyl)-6-(1-(8-isobutyl-8-azabicyclo[3.2.1]octan-3-yl)piperidin-4-yl)-1,4-dimethyl-1H-benzo[d]imidazole]
Human TLR7
  IC50: 7.7 µM
Human TLR8
  IC50: > 50 µM
Human TLR9; [1]
  IC50: 0.029 µM

## COc1cc(-c2nc3c(C)cc(C4CCN(C5CC6CCC(C5)N6CC(C)C)CC4)cc3n2C)cn2ncnc12 (stereo not drawn) [Example 126, 6-(6-(1-(8-isobutyl-8-azabicyclo[3.2.1]octan-3-yl)piperidin-4-yl)-1,4-dimethyl-1H-benzo[d]imidazol-2-yl)-8-methoxy-[1,2,4]triazolo[1,5-a]pyridine]
Human TLR8
  IC50: 4.5 µM
Human TLR9; [1]
  IC50: 0.59 µM
Human TLR9; [2]
  IC50: 0.588 µM

## Cn1c(-c2ccc(S(C)(=O)=O)cc2)nc2ccc(C3CCN(C4CC5CCC(C4)N5C4COC4)CC3)c(F)c21 (stereo not drawn) [Example 272, 7-fluoro-1-methyl-2-(4-(methylsulfonyl)phenyl)-6-(1-(8-(oxetan-3-yl)-8-azabicyclo[3.2.1]octan-3-yl)piperidin-4-yl)-1H-benzo[d]imidazole]
Human TLR8
  IC50: > 50 µM
Human TLR9; [2]
  IC50: 0.6 µM

## Cn1c(-c2ccc(S(C)(=O)=O)cc2)nc2c(F)cc(C3CCN(C4CC5CCC(C4)N5C4COC4)CC3)cc21 (stereo not drawn) [Example 287, 4-fluoro-1-methyl-2-(4-(methylsulfonyl)phenyl)-6-(1-(8-(oxetan-3-yl)-8-azabicyclo[3.2.1]octan-3-yl)piperidin-4-yl)-1H-benzo[d]imidazole]
Human TLR8
  IC50: > 50 µM
Human TLR9; [2]
  IC50: 0.104 µM
Human TLR9; HEK-Blue human TLR9 reporter cells
  IC50: 0.1 µM

## Cc1cc(-c2ccc(CN3CCC(N4CCCC4)CC3)c(F)c2)cc2c1nc(-c1ccc(S(C)(=O)=O)cc1)n2C [Example 387, 6-(3-fluoro-4-((4-(pyrrolidin-1-yl)piperidin-1-yl)methyl)phenyl)-1,4-dimethyl-2-(4-(methylsulfonyl)phenyl)-1H-benzo[d]imidazole]
Human TLR8
  IC50: 7.3 µM
Human TLR9; [1]
  IC50: 0.056 µM
Human TLR9; [2]
  IC50: 0.056 µM

Source: patent publication US12492188B2, “1H-benzo[D]imidazole derivatives as TLR9 inhibitors for the treatment of fibrosis” (BRISTOL-MYERS SQUIBB COMPANY, priority 2020, dated 2025)
